Drawing on the supplement of paper PMC10307832, this text covers relative viability for one cell line.

Common to all, as to assay: relative viability (nuclei count vs DMSO), 5 days (fraction); higher = more cells survive
Compound in one assay: CC1CC(=O)N(C2=CN=C(N=C2N1C3CCCC3)NC4=C(C=C(C=C4)C(=O)NC5CCN(CC5)C)OC)C [NPK76-II-72-1]
Summed up: (§1)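 Only plates meeting two conditions passed: control CV below 25% and at least one doubling. Lung cancer cell lines, kept overnight at 37 °C in 1536-well plates, were pinned with five library-drug doses (not always all listed) √10 apart on vehicle-anchored plates and grown 5 days without medium change. A one-step fix, permeabilisation and Hoechst stain preceded 4× imaging and MetaXpress nuclear counting. Viability equals treated-well nuclei divided by vehicle-well nuclei, as the median over plates.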

Compound in another assay: CC[C@@H]1C(=O)N(C)c2cnc(Nc3ccc(C(=O)NC4CCN(C)CC4)cc3OC)nc2N1C1CCCC1 [BI-2536]
Summed up: as §1

Compound in assay [1]: CC1CC(=O)N(C2=CN=C(N=C2N1C3CCCC3)NC4=C(C=C(C=C4)C(=O)NC5CCN(CC5)C)OC)C [NPK76-II-72-1] + CC(=O)c1c(C)c2cnc(Nc3ccc(N4CCNCC4)cn3)nc2n(C2CCCC2)c1=O [Palbociclib] (partner 0.5 µM)
The method, boiled down: (§2)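 For relative viability, nuclei counts in treated wells were divided by those in vehicle wells. Lung cancer cell lines had been pin-tool dosed in 1536-well plates the day after seeding and cultured for 5 days, then fixed and stained in one step (final 0.05% Triton X-100, 1% formaldehyde, 1 ug/ml Hoechst) and imaged at 4×. Doses were one drug alone or a fixed anchor-drug dose plus five library-drug doses (not always all listed) in √10 steps, and values are duplicate-plate medians.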

Compound in assay [2]: CC1CC(=O)N(C2=CN=C(N=C2N1C3CCCC3)NC4=C(C=C(C=C4)C(=O)NC5CCN(CC5)C)OC)C [NPK76-II-72-1] + Cc1cc(Nc2cc(N3CCN(C)CC3)nc(Sc3ccc(NC(=O)C4CC4)cc3)n2)n[nH]1 [Tozasertib] (partner 0.1 µM)
The method, boiled down: as §2

For the cell line UMC-11, the relative viability with NPK76-II-72-1 (0.01 µM) stood at 0.93; with NPK76-II-72-1 (0.03162 µM), 0.95; with NPK76-II-72-1 (0.1 µM) it was 1.01; in the assay with NPK76-II-72-1 (0.3162 µM), 0.909; with NPK76-II-72-1 (1 µM) it was 0.931; with BI-2536 (0.01 µM), 0.923. In addition, the relative viability worked out at 0.624 with BI-2536 (0.03162 µM); 0.175 in the assay with BI-2536 (0.1 µM); 0.205 with BI-2536 (0.3162 µM); 0.2 with BI-2536 (1 µM); 0.301 in assay [1] (first compound 0.01 µM); 0.326 in assay [1] (first compound 0.03162 µM). For the same cell line, the relative viability in assay [1] (first compound 0.1 µM) stood at 0.265; in assay [1] (first compound 0.3162 µM), 0.355; in assay [1] (first compound 1 µM), 0.355; in assay [2] (first compound 0.01 µM), 0.197; in assay [2] (first compound 0.03162 µM) it was 0.186; in assay [2] (first compound 0.1 µM), 0.197. Besides, the relative viability in assay [2] (first compound 1 µM) is 0.205.
